{"source": "patent US20250163104A1", "about": "“MACROCYCLIC IMMUNOMODULATORS” (priority 2021, published 2025)", "note": "*1 amine or outer side, *2 acyl side, *3 side chain or, on linkers, in order; H or OH if unused. Where a SMILES comes first, the peptide text is derived from it. Bridges are numbered along the chain shown (N, C = ends). [ ]: non-standard residue; d: D form. The star is where a group is joined. ξ: configuration not given here. Phe(4-COOH) = N[C@@H](Cc1ccc(C(=O)O)cc1)C(=O)O; Bip = N[C@@H](Cc1ccc(-c2ccccc2)cc1)C(=O)O; Phe(3-Me) = Cc1cccc(C[C@H](N)C(=O)O)c1; βAsp = O=C(O)[C@H](CC(=O)[*:2])N[*:1]; 4Pal = N[C@@H](Cc1ccncc1)C(=O)O; Cha = N[C@@H](CC1CCCCC1)C(=O)O; Cit = NC(=O)NCCC[C@H](N)C(=O)O; Carboxymethyl = O=C(O)C*; Orn = NCCC[C@H](N)C(=O)O; Pra = C#CC[C@H](N)C(=O)O; Dab = NCC[C@H](N)C(=O)O; Dap = NC[C@H](N)C(=O)O; ξPra = C#CCC(N)C(=O)O"}
{"target": "T1, human PD-1 / PD-L1-Ig binding on Jurkat cell line over-expressing human PD-1 (Jurkat-PD-1) (Homo sapiens, UniProt Q15116)", "T1 construct": "expressed in transfected cells; host or cells: Jurkat", "T1 sequence (Q15116 25-288)": "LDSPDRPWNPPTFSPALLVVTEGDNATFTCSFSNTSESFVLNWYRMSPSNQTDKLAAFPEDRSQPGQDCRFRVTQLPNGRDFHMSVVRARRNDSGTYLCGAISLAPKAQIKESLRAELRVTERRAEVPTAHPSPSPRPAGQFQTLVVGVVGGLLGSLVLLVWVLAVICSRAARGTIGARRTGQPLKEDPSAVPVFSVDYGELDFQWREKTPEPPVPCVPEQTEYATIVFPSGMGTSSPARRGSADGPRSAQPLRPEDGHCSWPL", "assay": "Jurkat-PD-1 Cell Binding High-Content Screening Assay (CBA)", "type": "cell-based", "details": "Jurkat-PD-1 cells, PE-labeled PD-L1-Ig 20 nM final; read-out: Jurkat HPD1_PDL1 IC50", "summary_of_the_method": "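Jurkat cells over-expressing human PD-1, in DMEM/10% FCS, pre-incubated with compound 2 h at 37° C. PE-labeled human PD-L1-Ig (20 nM final) added for 1 h; cells fixed in paraformaldehyde with Hoechst 33342 nuclear stain, washed, and bound fluorescence quantified by high-content imaging.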", "units": {"IC50": "nM"}}
{"smiles": "Cc1cccc(C[C@@H]2NC(=O)[C@H](CC(=O)O)NC(=O)[C@H](Cc3ccc(OCC(=O)O)cc3)NC(=O)[C@H](CN)NC(=O)CSC[C@@H](C(=O)N[C@@H](C)C(N)=O)NC(=O)[C@H](Cc3cnc[nH]3)NC(=O)[C@H](C(C)C)NC(=O)[C@H](CC3CCCCC3)NC(=O)[C@H](CCN)NC(=O)[C@@H](CC(C)C)NC(=O)[C@H](CCCN)NC(=O)[C@H](C(C)C)NC(=O)[C@H](Cc3ccc(-c4ccccc4)cc3)NC(=O)[C@H](C(C)C)NC2=O)c1", "note": "[Compound 1757] ({CH2CO}-[Dap]Y(Carboxymethyl)D[Phe(3-Me)]V[Bip]V[Orn][dL][Dab][Cha]VHCA-NH2; thioether N-14)", "IC50": 13.2}
{"smiles": "C#CCC(NC(=O)[C@H](CN)NC(=O)[C@@H]1CSCC(=O)N[C@@H](Cc2ccncc2)C(=O)N[C@@H](Cc2ccc(OCC(=O)O)cc2)C(=O)N[C@@H](CC(=O)O)C(=O)N[C@@H](Cc2c[nH]c3ccccc23)C(=O)N[C@@H](C(C)C)C(=O)N[C@@H](Cc2ccc(-c3ccccc3)cc2)C(=O)N[C@@H]([C@@H](C)CC)C(=O)N[C@@H](CCCN)C(=O)N[C@H](CC(C)C)C(=O)N[C@@H](CCN)C(=O)N[C@@H](CC(C)C)C(=O)N[C@@H](C(C)C)C(=O)N[C@@H]([C@@H](C)O)C(=O)N1)C(N)=O", "note": "(stereo partly drawn) [Compound 1758] ({CH2CO}-[4Pal]Y(Carboxymethyl)DWV[Bip]I[Orn][dL][Dab]LVTC[Dap][ξPra]-NH2; thioether N-14)", "IC50": 7.5}
{"smiles": "C#CCC(NC(=O)[C@H](CCN)NC(=O)[C@@H]1CSCC(=O)N[C@@H](Cc2ccncc2)C(=O)N[C@@H](Cc2ccc(OCC(=O)O)cc2)C(=O)N[C@@H](CC(=O)O)C(=O)N[C@@H](Cc2c[nH]c3ccccc23)C(=O)N[C@@H](C(C)C)C(=O)N[C@@H](Cc2ccc(-c3ccccc3)cc2)C(=O)N[C@@H]([C@@H](C)CC)C(=O)N[C@@H](CCCN)C(=O)N[C@H](CC(C)C)C(=O)N[C@@H](CCN)C(=O)N[C@@H](CC(C)C)C(=O)N[C@@H](C(C)C)C(=O)N[C@@H]([C@@H](C)O)C(=O)N1)C(N)=O", "note": "(stereo partly drawn) [Compound 1759] ({CH2CO}-[4Pal]Y(Carboxymethyl)DWV[Bip]I[Orn][dL][Dab]LVTC[Dab][ξPra]-NH2; thioether N-14)", "IC50": 7.2}
{"smiles": "C#CCC(NC(=O)[C@H](CCCN)NC(=O)[C@@H]1CSCC(=O)N[C@@H](Cc2ccncc2)C(=O)N[C@@H](Cc2ccc(OCC(=O)O)cc2)C(=O)N[C@@H](CC(=O)O)C(=O)N[C@@H](Cc2c[nH]c3ccccc23)C(=O)N[C@@H](C(C)C)C(=O)N[C@@H](Cc2ccc(-c3ccccc3)cc2)C(=O)N[C@@H]([C@@H](C)CC)C(=O)N[C@@H](CCCN)C(=O)N[C@H](CC(C)C)C(=O)N[C@@H](CCN)C(=O)N[C@@H](CC(C)C)C(=O)N[C@@H](C(C)C)C(=O)N[C@@H]([C@@H](C)O)C(=O)N1)C(N)=O", "note": "(stereo partly drawn) [Compound 1760] ({CH2CO}-[4Pal]Y(Carboxymethyl)DWV[Bip]I[Orn][dL][Dab]LVTC[Orn][ξPra]-NH2; thioether N-14)", "IC50": 39.6}
{"smiles": "C#CCC(NC(=O)[C@H](CCCCN)NC(=O)[C@@H]1CSCC(=O)N[C@@H](Cc2ccncc2)C(=O)N[C@@H](Cc2ccc(OCC(=O)O)cc2)C(=O)N[C@@H](CC(=O)O)C(=O)N[C@@H](Cc2c[nH]c3ccccc23)C(=O)N[C@@H](C(C)C)C(=O)N[C@@H](Cc2ccc(-c3ccccc3)cc2)C(=O)N[C@@H]([C@@H](C)CC)C(=O)N[C@@H](CCCN)C(=O)N[C@H](CC(C)C)C(=O)N[C@@H](CCN)C(=O)N[C@@H](CC(C)C)C(=O)N[C@@H](C(C)C)C(=O)N[C@@H]([C@@H](C)O)C(=O)N1)C(N)=O", "note": "(stereo partly drawn) [Compound 1761] ({CH2CO}-[4Pal]Y(Carboxymethyl)DWV[Bip]I[Orn][dL][Dab]LVTCK[ξPra]-NH2; thioether N-14)", "IC50": 13.9}
{"smiles": "C#CCC(NC(=O)[C@H](CCCNC(=N)N)NC(=O)[C@@H]1CSCC(=O)N[C@@H](Cc2ccncc2)C(=O)N[C@@H](Cc2ccc(OCC(=O)O)cc2)C(=O)N[C@@H](CC(=O)O)C(=O)N[C@@H](Cc2c[nH]c3ccccc23)C(=O)N[C@@H](C(C)C)C(=O)N[C@@H](Cc2ccc(-c3ccccc3)cc2)C(=O)N[C@@H]([C@@H](C)CC)C(=O)N[C@@H](CCCN)C(=O)N[C@H](CC(C)C)C(=O)N[C@@H](CCN)C(=O)N[C@@H](CC(C)C)C(=O)N[C@@H](C(C)C)C(=O)N[C@@H]([C@@H](C)O)C(=O)N1)C(N)=O", "note": "(stereo partly drawn) [Compound 1762] ({CH2CO}-[4Pal]Y(Carboxymethyl)DWV[Bip]I[Orn][dL][Dab]LVTCR[ξPra]-NH2; thioether N-14)", "IC50": 20.5}
{"smiles": "C#CCC(NC(=O)[C@H](Cc1cnc[nH]1)NC(=O)[C@@H]1CSCC(=O)N[C@@H](Cc2ccncc2)C(=O)N[C@@H](Cc2ccc(OCC(=O)O)cc2)C(=O)N[C@@H](CC(=O)O)C(=O)N[C@@H](Cc2c[nH]c3ccccc23)C(=O)N[C@@H](C(C)C)C(=O)N[C@@H](Cc2ccc(-c3ccccc3)cc2)C(=O)N[C@@H]([C@@H](C)CC)C(=O)N[C@@H](CCCN)C(=O)N[C@H](CC(C)C)C(=O)N[C@@H](CCN)C(=O)N[C@@H](CC(C)C)C(=O)N[C@@H](C(C)C)C(=O)N[C@@H]([C@@H](C)O)C(=O)N1)C(N)=O", "note": "(stereo partly drawn) [Compound 1763] ({CH2CO}-[4Pal]Y(Carboxymethyl)DWV[Bip]I[Orn][dL][Dab]LVTCH[ξPra]-NH2; thioether N-14)", "IC50": 24}
{"smiles": "C#CCC(NC(=O)[C@H](CN)NC(=O)[C@@H]1CSCC(=O)N[C@@H](Cc2ccncc2)C(=O)N[C@@H](Cc2ccc(OCC(=O)O)cc2)C(=O)N[C@@H](CC(=O)O)C(=O)N[C@@H](Cc2c[nH]c3ccccc23)C(=O)N[C@@H](C(C)C)C(=O)N[C@@H](Cc2ccc(-c3ccccc3)cc2)C(=O)N[C@@H]([C@@H](C)CC)C(=O)N[C@@H](CCCN)C(=O)N[C@H](CC(C)C)C(=O)N[C@@H](CCN)C(=O)N[C@@H](CC(C)C)C(=O)N[C@@H](C(C)C)C(=O)N[C@@H]([C@@H](C)O)C(=O)N1)C(N)=O", "note": "(stereo partly drawn) [Compound 1764] ({CH2CO}-[4Pal]Y(Carboxymethyl)DWV[Bip]I[Orn][dL][Dab]LVTC[Dap][ξPra]-NH2; thioether N-14)", "IC50": 33.1}
{"smiles": "C#CCC(NC(=O)[C@H](CCN)NC(=O)[C@@H]1CSCC(=O)N[C@@H](Cc2ccncc2)C(=O)N[C@@H](Cc2ccc(OCC(=O)O)cc2)C(=O)N[C@@H](CC(=O)O)C(=O)N[C@@H](Cc2c[nH]c3ccccc23)C(=O)N[C@@H](C(C)C)C(=O)N[C@@H](Cc2ccc(-c3ccccc3)cc2)C(=O)N[C@@H]([C@@H](C)CC)C(=O)N[C@@H](CCCN)C(=O)N[C@H](CC(C)C)C(=O)N[C@@H](CCN)C(=O)N[C@@H](CC(C)C)C(=O)N[C@@H](C(C)C)C(=O)N[C@@H]([C@@H](C)O)C(=O)N1)C(N)=O", "note": "(stereo partly drawn) [Compound 1765] ({CH2CO}-[4Pal]Y(Carboxymethyl)DWV[Bip]I[Orn][dL][Dab]LVTC[Dab][ξPra]-NH2; thioether N-14)", "IC50": 21.4}
{"smiles": "C#CCC(NC(=O)[C@H](CCCN)NC(=O)[C@@H]1CSCC(=O)N[C@@H](Cc2ccncc2)C(=O)N[C@@H](Cc2ccc(OCC(=O)O)cc2)C(=O)N[C@@H](CC(=O)O)C(=O)N[C@@H](Cc2c[nH]c3ccccc23)C(=O)N[C@@H](C(C)C)C(=O)N[C@@H](Cc2ccc(-c3ccccc3)cc2)C(=O)N[C@@H]([C@@H](C)CC)C(=O)N[C@@H](CCCN)C(=O)N[C@H](CC(C)C)C(=O)N[C@@H](CCN)C(=O)N[C@@H](CC(C)C)C(=O)N[C@@H](C(C)C)C(=O)N[C@@H]([C@@H](C)O)C(=O)N1)C(N)=O", "note": "(stereo partly drawn) [Compound 1766] ({CH2CO}-[4Pal]Y(Carboxymethyl)DWV[Bip]I[Orn][dL][Dab]LVTC[Orn][ξPra]-NH2; thioether N-14)", "IC50": 31.4}
{"smiles": "C#CCC(NC(=O)[C@H](CCCCN)NC(=O)[C@@H]1CSCC(=O)N[C@@H](Cc2ccncc2)C(=O)N[C@@H](Cc2ccc(OCC(=O)O)cc2)C(=O)N[C@@H](CC(=O)O)C(=O)N[C@@H](Cc2c[nH]c3ccccc23)C(=O)N[C@@H](C(C)C)C(=O)N[C@@H](Cc2ccc(-c3ccccc3)cc2)C(=O)N[C@@H]([C@@H](C)CC)C(=O)N[C@@H](CCCN)C(=O)N[C@H](CC(C)C)C(=O)N[C@@H](CCN)C(=O)N[C@@H](CC(C)C)C(=O)N[C@@H](C(C)C)C(=O)N[C@@H]([C@@H](C)O)C(=O)N1)C(N)=O", "note": "(stereo partly drawn) [Compound 1767] ({CH2CO}-[4Pal]Y(Carboxymethyl)DWV[Bip]I[Orn][dL][Dab]LVTCK[ξPra]-NH2; thioether N-14)", "IC50": 16.7}
{"smiles": "C#CC[C@H](NC(=O)C[C@H](NC(=O)[C@H](CCN)NC(=O)[C@@H]1CSCC(=O)N[C@@H](Cc2ccc(OCC(=O)O)cc2)C(=O)N[C@@H](Cc2ccncc2)C(=O)N[C@@H](CC(=O)O)C(=O)N[C@@H](Cc2cccc(C)c2)C(=O)N[C@@H](C(C)C)C(=O)N[C@@H](Cc2ccc(-c3ccccc3)cc2)C(=O)N[C@@H](CCCNC(N)=O)C(=O)N[C@@H](CCCN)C(=O)N[C@H](CC(C)C)C(=O)N[C@@H](CCN)C(=O)N[C@@H](CC2CCCCC2)C(=O)N[C@@H](C(C)C)C(=O)N[C@@H]([C@@H](C)O)C(=O)N1)C(=O)O)C(N)=O", "note": "[Compound 1768] ({CH2CO}-Y(Carboxymethyl)[4Pal]D[Phe(3-Me)]V[Bip][Cit][Orn][dL][Dab][Cha]VTC[Dab][βAsp][Pra]-NH2; thioether N-14)", "IC50": 10.1}
{"smiles": "C#CC[C@H](NC(=O)C[C@H](NC(=O)[C@H](CCN)NC(=O)[C@@H]1CSCC(=O)N[C@@H](Cc2ccncc2)C(=O)N[C@@H](Cc2ccc(C(=O)O)cc2)C(=O)N[C@@H](CC(=O)O)C(=O)N[C@@H](Cc2c[nH]c3ccccc23)C(=O)N[C@@H](C(C)C)C(=O)N[C@@H](Cc2ccc(-c3ccccc3)cc2)C(=O)N[C@@H]([C@@H](C)CC)C(=O)N[C@@H](CCCN)C(=O)N[C@H](CC(C)C)C(=O)N[C@@H](CCN)C(=O)N[C@@H](CC(C)C)C(=O)N[C@@H](C(C)C)C(=O)N[C@@H]([C@@H](C)O)C(=O)N1)C(=O)O)C(=O)O", "note": "[Compound 1770] ({CH2CO}-[4Pal][Phe(4-COOH)]DWV[Bip]I[Orn][dL][Dab]LVTC[Dab][βAsp][Pra]-OH; thioether N-14)", "IC50": 68.9}
